According to ChEMBL document CHEMBL4145518, “High anticancer potency on tumor cells of dehydroabietylamine Schiff-base derivatives and a copper(II) complex” (Eur J Med Chem, 2018):
Activity calls are given as the source filed them. The calls are words filed in the database; no cut-off is given here.

Experiments:
HepG2 [1] = assay: Induction of apoptosis in human HepG2 cells assessed as early apoptotic cells at 0.1 ug/ml after 24 hrs by Annexin V/propidium iodide staining based flow cytometry (reference value: 7.92%); assay type: functional
HepG2 [2] = assay: Induction of apoptosis in human HepG2 cells assessed as late apoptotic cells at 0.1 ug/ml after 24 hrs by Annexin V/propidium iodide staining based flow cytometry (reference value: 7.09%); assay type: functional
HepG2 [3] = assay: Induction of apoptosis in human HepG2 cells assessed as necrotic cells at 0.1 ug/ml after 24 hrs by Annexin V/propidium iodide staining based flow cytometry (reference value: 1.86%); assay type: functional
HepG2 [4] = assay: Induction of apoptosis in human HepG2 cells assessed as viable cells at 0.1 ug/ml after 24 hrs by Annexin V/propidium iodide staining based flow cytometry (reference value: 83.13%); assay type: functional; conditions: HepG2, 24 h, read-out: Activity
HepG2 [5] = assay: Induction of apoptosis in human HepG2 cells assessed as early apoptotic cells at 1 ug/ml after 24 hrs by Annexin V/propidium iodide staining based flow cytometry (reference value: 7.92%); assay type: functional
HepG2 [6] = assay: Induction of apoptosis in human HepG2 cells assessed as late apoptotic cells at 1 ug/ml after 24 hrs by Annexin V/propidium iodide staining based flow cytometry (reference value: 7.09%); assay type: functional
HepG2 [7] = assay: Induction of apoptosis in human HepG2 cells assessed as necrotic cells at 1 ug/ml after 24 hrs by Annexin V/propidium iodide staining based flow cytometry (reference value: 1.86%); assay type: functional
HepG2 [8] = assay: Induction of apoptosis in human HepG2 cells assessed as viable cells at 1 ug/ml after 24 hrs by Annexin V/propidium iodide staining based flow cytometry (reference value: 83.13%); assay type: functional; conditions: HepG2, 24 h, read-out: Activity
HepG2 [9] = assay: Induction of apoptosis in human HepG2 cells assessed as early apoptotic cells at 10 ug/ml after 24 hrs by Annexin V/propidium iodide staining based flow cytometry (reference value: 7.92%); assay type: functional
HepG2 [10] = assay: Induction of apoptosis in human HepG2 cells assessed as late apoptotic cells at 10 ug/ml after 24 hrs by Annexin V/propidium iodide staining based flow cytometry (reference value: 7.09%); assay type: functional
HepG2 [11] = assay: Induction of apoptosis in human HepG2 cells assessed as necrotic cells at 10 ug/ml after 24 hrs by Annexin V/propidium iodide staining based flow cytometry (reference value: 1.86%); assay type: functional
HepG2 [12] = assay: Induction of apoptosis in human HepG2 cells assessed as viable cells at 10 ug/ml after 24 hrs by Annexin V/propidium iodide staining based flow cytometry (reference value: 83.13%); assay type: functional; conditions: HepG2, 24 h, read-out: Activity
Salmon testes DNA [13] = assay: Binding affinity to salmon sperm DNA assessed as DNA intercalation by ethidium bromide staining based fluorescence assay; assay type: nucleic-acid assay; conditions: Salmonidae
HeLa = assay: Antiproliferative activity against human HeLa cells after 36 hrs by MTT assay; assay type: functional, cell-based
HepG2 [14] = assay: Antiproliferative activity against human HepG2 cells after 36 hrs by MTT assay; assay type: functional, cell-based; conditions: HepG2, 36 h
MCF7 = assay: Antiproliferative activity against human MCF7 cells after 36 hrs by MTT assay; assay type: functional, cell-based; conditions: MCF7, 36 h
A549 = assay: Antiproliferative activity against human A549 cells after 36 hrs by MTT assay; assay type: functional, cell-based; conditions: A549, 36 h
HUVEC = assay: Cytotoxicity against HUVEC assessed as reduction in cell viability after 36 hrs by MTT assay; assay type: cell-based; conditions: Homo sapiens
Salmon testes DNA [15] = assay: Binding affinity to salmon sperm DNA assessed as DNA intercalation at 5 10^-5M by ethidium bromide staining based fluorescence assay; assay type: nucleic-acid assay; conditions: Salmonidae
Salmon testes DNA [16] = assay: Binding affinity to salmon sperm DNA assessed as DNA intercalation at 1.5 10^-5M by ethidium bromide staining based fluorescence assay; assay type: nucleic-acid assay; conditions: Salmonidae
Salmon testes DNA [17] = assay: Binding affinity to salmon sperm DNA assessed as hypochromic shift at 1.5 10^-5M by ethidium bromide staining based fluorescence assay; assay type: nucleic-acid assay; conditions: Salmonidae
Salmon testes DNA [18] = assay: Binding affinity to salmon sperm DNA assessed as hypochromic shift at 5 10^-5M by ethidium bromide staining based fluorescence assay; assay type: nucleic-acid assay; conditions: Salmonidae
[19] = Selectivity index, ratio of IC50 for HUVEC to IC50 for human HepG2 cells; assay type: toxicity; conditions: HUVEC and HepG2 cells, read-out: Ratio IC50
Androgen receptor = target: T1, Androgen receptor (Homo sapiens, UniProt P10275); assay: Binding affinity to androgen receptor (unknown origin)
T1 sequence (P10275 whole entry): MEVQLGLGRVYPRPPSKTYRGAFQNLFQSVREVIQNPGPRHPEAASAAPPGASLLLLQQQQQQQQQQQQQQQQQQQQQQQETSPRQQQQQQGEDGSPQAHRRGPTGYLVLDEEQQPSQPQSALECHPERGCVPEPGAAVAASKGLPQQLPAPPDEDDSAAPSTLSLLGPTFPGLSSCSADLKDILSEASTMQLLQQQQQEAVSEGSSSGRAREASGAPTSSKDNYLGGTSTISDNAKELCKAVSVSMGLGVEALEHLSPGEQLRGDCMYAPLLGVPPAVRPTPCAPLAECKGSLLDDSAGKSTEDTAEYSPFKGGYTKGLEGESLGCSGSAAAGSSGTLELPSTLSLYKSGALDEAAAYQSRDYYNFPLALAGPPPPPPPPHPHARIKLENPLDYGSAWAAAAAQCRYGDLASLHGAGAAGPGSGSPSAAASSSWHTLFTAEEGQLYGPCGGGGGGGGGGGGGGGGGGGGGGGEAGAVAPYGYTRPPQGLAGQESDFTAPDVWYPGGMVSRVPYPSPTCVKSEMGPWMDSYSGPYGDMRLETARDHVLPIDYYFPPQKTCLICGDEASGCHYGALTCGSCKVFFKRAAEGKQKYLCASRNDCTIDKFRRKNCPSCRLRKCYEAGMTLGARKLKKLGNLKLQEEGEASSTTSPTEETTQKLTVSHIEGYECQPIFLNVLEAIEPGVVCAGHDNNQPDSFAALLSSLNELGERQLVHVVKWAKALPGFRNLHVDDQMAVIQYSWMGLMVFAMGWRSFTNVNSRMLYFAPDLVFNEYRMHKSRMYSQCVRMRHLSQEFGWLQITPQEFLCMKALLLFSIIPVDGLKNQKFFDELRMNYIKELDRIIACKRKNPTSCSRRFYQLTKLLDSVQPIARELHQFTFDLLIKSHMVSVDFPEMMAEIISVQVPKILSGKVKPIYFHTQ

Row | IC50 (HeLa) | IC50 (HepG2 [14]) | IC50 (MCF7) | IC50 (A549) | Activity (Salmon testes DNA [15]) | Compound | Activity (HepG2 [1]) | Activity (HepG2 [2]) | Activity (HepG2 [3]) | viability at 0.1 µg/mL (HepG2 [4]) | Activity (HepG2 [5]) | Activity (HepG2 [6]) | Activity (HepG2 [7]) | viability at 1 µg/mL (HepG2 [8]) | Activity (HepG2 [9]) | Activity (HepG2 [10]) | Activity (HepG2 [11]) | viability at 10 µg/mL (HepG2 [12]) | IC50 (HUVEC) | further results
1 | – | – | – | – | – | COc1cccc2c1C(=O)c1c(O)c3c(c(O)c1C2=O)C[C@@](O)(C(=O)CO)C[C@@H]3O[C@H]1C[C@H](N)[C@H](O)[C@H](C)O1 [DOXORUBICIN] | 34.49% | 11.74% | 0.62% | 53.1% | 47.19% | 12.6% | 0.35% | 39.9% | 70.12% | 3.57% | 0% | 26.3% | – | Activity (Salmon testes DNA [13]): Active
2 | 41 µM | 17.6 µM | 5.41 µM | 40 µM | Active | CC(C)c1ccc2c(c1)CC[C@H]1[C@](C)(C/N=C/c3cc(C(C)(C)C)cc(C(C)(C)C)c3O)CCC[C@]21C | – | – | – | – | – | – | – | – | – | – | – | – | 41 µM | –
3 | 3.22 µM | 0.24 µM | 4.28 µM | 3.17 µM | – | CC(C)c1ccc2c(c1)CC[C@H]1[C@](C)(C/N=C/c3ncc[nH]3)CCC[C@]21C | 26.33% | 18.54% | 0.69% | 54.4% | 51.15% | 10.13% | 0.25% | 38.5% | 98.32% | 0.32% | 0% | 1.06% | 7.67 µM | Activity (Salmon testes DNA [16]): Active; Activity (Salmon testes DNA [17]): Active
4 | 20 µM | 10.5 µM | 25 µM | 41 µM | Active | CC(C)c1ccc2c(c1)CC[C@H]1[C@](C)(C/N=C/c3cccc(C(C)(C)C)c3O)CCC[C@]21C | – | – | – | – | – | – | – | – | – | – | – | – | 33 µM | –
5 | 7.86 µM | 0.14 µM | 2.58 µM | 7 µM | Active | CC(C)c1ccc2c(c1)CC[C@H]1[C@](C)(C/N=C/c3c[nH]cn3)CCC[C@]21C | 33.71% | 12.9% | 0.66% | 52.7% | 60.49% | 6.39% | 0.23% | 32.9% | 98.78% | 0.29% | 0% | 0.93% | 26 µM | Activity (Salmon testes DNA [18]): Active; selectivity ratio [19]: 180
6 | 2.02 µM | 2.56 µM | 19.4 µM | 5.02 µM | – | CC(C)c1ccc2c(c1)CC[C@H]1[C@](C)(CN)CCC[C@]21C | 22.94% | 15.46% | 0.69% | 60.9% | 44.79% | 22.98% | 0.24% | 32% | 91.91% | 0.7% | 0% | 1.4% | 1.27 µM | –
7 | 11.2 µM | 10.7 µM | 14.1 µM | 17 µM | Active | CCN(CC)c1ccc(/C=N/C[C@]2(C)CCC[C@]3(C)c4ccc(C(C)C)cc4CC[C@@H]23)c(O)c1 | – | – | – | – | – | – | – | – | – | – | – | – | 43.1 µM | –
8 | – | – | – | – | – | CC(C)c1ccc2c(c1)C(=O)C[C@H]1[C@@](C)(CNC(=O)c3ccccc3)CCC[C@]21C | – | – | – | – | – | – | – | – | – | – | – | – | – | IC50 (Androgen receptor): 83.8 µM
